Source: patent publication US9486457B2, “Use of cinnabarinic acid as a modulator of immune responses in autoimmune disorders” (The Regents of the University of California, priority 2010, dated 2016)
Entries after “also recorded” stand apart in the source; their conditions may differ.

Assays:
[1] = tested on: naïve (CD45RA+CCR7+CD95−CD25−) CD4+ T cells; experiment: Foxp3 induction in stimulated naïve CD4+ T cells; type: cell-based, human; conditions: stimulated naïve CD4+ T cells in vitro
Description: FIG. 9: The synthetic 3-HAA analogue 3,4 DAA (Tranilast) is an AhR antagonist and promotes the induction of Foxp3 by stimulated CD4+ T cells. (A) 3,4 DAA shares some structural similarities to 3-HAA (highlighted region).
Therefore we asked whether T cells treated with 3,4 DAA might be prompted to differentiate into Treg cells through upregulation of the transcription factor Foxp3 (26).

[2] = tested on: human naïve CD4+ T cells; experiment: IL-22 induction in cultured human naïve CD4+ T cells stimulated with anti-CD3/anti-CD28 under Th17 polarizing conditions; type: cell-based; conditions: CA 25 μM in FIG. 8D
Description: This is AHR dependent as inclusion of an AHR antagonist fully abrogated effect.
FIG. 8: CA is an endogenous AhR agonist generated by oxidative dimerization of 3-HAA. (A) An alternative pathway of 3-HAA metabolism leads to the generation of CA either by non-enzymatic (oxidation) or enzymatic (laccase, ceruloplasmin) processes. CA is structurally similar to the synthetic AhR ligand TCDD. […] Data are representative of three similar experiments.

[3] = tested on: zebrafish embryos; experiment: CYP1A1 induction in zebrafish embryos; type: in vivo; conditions: within 72 hours
Description: (§1) 3-HAA is particularly susceptible to oxidation, resulting in the formation of the metabolite cinnabarinic acid (CA) through dimerization of two molecules of 3-HAA (24). […] In addition, CA has potent effects on thymocyte maturation (25) not unlike what has been observed in rodents treated with TCDD (26-28) or in transgenic mice with a constitutively active AHR (29). To test the hypothesis that CA is an AHR ligand, we obtained pure CA, prepared through a chemical synthesis using 3-HAA as a starting material and purified by HPLC, and analyzed its ability to bind to and activate the AHR in vitro.

[4] = molecular target: T1, human AHR protein (Homo sapiens, UniProt P35869); experiment: Displacement of TCDD binding to in vitro translated human AHR protein; conditions: cell-free
T1 sequence (P35869 11-848): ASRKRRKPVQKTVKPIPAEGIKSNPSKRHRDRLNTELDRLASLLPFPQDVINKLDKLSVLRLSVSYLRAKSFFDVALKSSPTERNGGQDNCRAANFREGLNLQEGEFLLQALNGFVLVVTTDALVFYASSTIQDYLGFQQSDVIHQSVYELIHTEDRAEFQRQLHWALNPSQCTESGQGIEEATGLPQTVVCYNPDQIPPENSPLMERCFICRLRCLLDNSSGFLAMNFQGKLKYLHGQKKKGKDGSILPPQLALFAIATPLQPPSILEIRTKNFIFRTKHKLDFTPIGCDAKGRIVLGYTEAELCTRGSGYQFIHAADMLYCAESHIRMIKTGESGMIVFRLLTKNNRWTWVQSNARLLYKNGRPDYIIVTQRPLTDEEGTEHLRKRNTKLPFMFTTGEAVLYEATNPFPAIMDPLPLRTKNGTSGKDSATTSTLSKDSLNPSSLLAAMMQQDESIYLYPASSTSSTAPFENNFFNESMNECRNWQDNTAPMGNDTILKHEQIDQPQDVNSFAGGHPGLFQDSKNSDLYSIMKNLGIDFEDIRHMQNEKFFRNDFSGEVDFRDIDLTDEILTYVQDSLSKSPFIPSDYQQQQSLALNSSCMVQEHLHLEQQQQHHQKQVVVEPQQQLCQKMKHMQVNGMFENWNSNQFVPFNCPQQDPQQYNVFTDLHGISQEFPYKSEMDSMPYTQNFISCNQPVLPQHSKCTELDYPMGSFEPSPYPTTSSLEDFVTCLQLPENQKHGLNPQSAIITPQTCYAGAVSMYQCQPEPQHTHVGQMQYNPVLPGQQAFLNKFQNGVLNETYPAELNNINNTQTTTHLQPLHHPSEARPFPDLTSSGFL
Description: (§2) We performed a precursory screen of all tryptophan metabolites including both 3-HKA and 3-HAA to bind to and act as agonists or antagonists of the AHR using two separate assays. First we examined the ability of 3-HKyn, 3-HAA, and PA to displace TCDD binding to the human AHR protein in vitro (20). […] We also measured AHR activation using a mouse hepatoma cell line (H1G1) that stably expresses a green fluorescent protein (GFP) reporter construct downstream of a series of dioxin responsive elements (FIG. 7A) (21).

[5] = molecular target: T2, AHR (Mus musculus, UniProt P30561); experiment: AHR-responsive (dioxin responsive element) GFP reporter assay in H1G1 mouse hepatoma cells; type: cell-based; conditions: agonist mode
T2 construct: murine hepatoma cell line stably transfected with an AhR-responsive (AhR-eGFP) reporter construct; endogenous in cells
T2 sequence (P30561 10-848): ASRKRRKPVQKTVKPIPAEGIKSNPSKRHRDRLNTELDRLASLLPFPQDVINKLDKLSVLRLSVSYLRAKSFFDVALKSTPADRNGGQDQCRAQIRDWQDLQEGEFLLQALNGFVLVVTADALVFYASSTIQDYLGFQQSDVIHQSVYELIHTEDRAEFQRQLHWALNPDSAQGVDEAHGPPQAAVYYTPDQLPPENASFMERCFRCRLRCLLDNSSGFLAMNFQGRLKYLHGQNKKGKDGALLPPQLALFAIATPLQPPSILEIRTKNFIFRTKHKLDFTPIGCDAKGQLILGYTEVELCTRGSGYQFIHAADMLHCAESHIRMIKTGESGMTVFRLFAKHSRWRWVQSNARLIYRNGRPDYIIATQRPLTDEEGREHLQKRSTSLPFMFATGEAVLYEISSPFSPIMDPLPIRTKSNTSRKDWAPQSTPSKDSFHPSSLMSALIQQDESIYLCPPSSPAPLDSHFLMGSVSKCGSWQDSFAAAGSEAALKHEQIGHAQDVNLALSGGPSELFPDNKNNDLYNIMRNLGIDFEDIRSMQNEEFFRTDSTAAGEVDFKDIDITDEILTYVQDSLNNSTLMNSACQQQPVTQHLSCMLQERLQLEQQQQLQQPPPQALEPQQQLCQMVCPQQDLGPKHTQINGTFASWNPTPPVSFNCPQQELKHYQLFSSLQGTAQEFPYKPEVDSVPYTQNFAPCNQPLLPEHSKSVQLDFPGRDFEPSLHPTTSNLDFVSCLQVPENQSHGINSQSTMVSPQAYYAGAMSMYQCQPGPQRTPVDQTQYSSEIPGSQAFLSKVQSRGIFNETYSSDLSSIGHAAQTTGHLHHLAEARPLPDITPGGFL
Description: as §2

[6] = tested on: lymphocytes; experiment: CYP1A1 transcription within lymphocytes; type: cell-based
Description: as §1

[7] = tested on: experimental allergic encephalomyelitis (EAE); experiment: Experimental allergic/autoimmune encephalomyelitis (EAE) induced with MOG peptide and CFA; type: in vivo, C57BL/6 mice; conditions: for development / induction of EAE (disease occurrence and severity): single dose (1 mg/mouse) at Day 0 within the emulsion containing MOG peptide and adjuvant, compared to DMSO
Experimental: FIGS. 10A and 10B illustrate the number or frequency of cytokine producing cells within the CNS (or spleen) of mice treated at day 0 with 1 dose of CA (1 mg/mouse) or vehicle (DMSO) within the emulsion contain MOG peptide and adjuvant. Representative flow plots are shown at the bottom of the figures. EAE survival curve for 10 animals treated with CA or with DMSO showing that 1/10 animals treated with CA gets sick whereas 9/10 animals treated with vehicle (DMSO) are sick at the indicated timepoint.
However, TCDD and FICZ are both known AHR agonists, like CA, whereas 3,4 DAA appears to act as an antagonist. Therefore the regulation of the Th17/Th22/Treg cell differentiation pathways at the level of the AHR is likely to be more complex than merely reflecting the presence of an agonistic or antagonistic ligand. To assess whether CA was protective in EAE we performed a series of experiments in which CA was administered in a single dose (1 mg/mouse) contained within the emulsion used to induce disease.

[8] = single dose 1 mg/mouse in the emulsion

Nc1c(C(=O)O)c2nc3c(C(=O)O)cccc3oc-2cc1=O [Cinnabarinic Acid, cinnabarinic acid]
Foxp3 expression (frequency of CD4+Foxp3+ T cells) [1]: did not appear to promote Foxp3 upregulation | IL-22 induction [2]: potently induces IL-22 | IL-22 induction ([2]; listed as CA): stimulate the differentiation of a newly defined subset of human T cells that produce the cytokine IL-22; also recorded: promoted IL-22 production more strongly than any other tryptophan metabolite tested; also recorded: potently induces IL-22 | CYP1A1 induction [3]: potent induction of CYP1A1 in zebrafish embryos | displacement / inhibition of TCDD binding to human AHR [4]: displaces Dioxin (TCDD) | displacement / inhibition of TCDD binding to human AHR ([4]; listed as CA): able to bind to and activate the AHR at much lower concentrations than that observed for 3-HAA; also recorded: dose-dependent inhibition of TCDD binding | AHR agonist activity (activation of AHR-responsive reporter) [5]: activates AHR responsive (Dioxin Responsive Elements) | AHR agonist activity (activation of AHR-responsive reporter) ([5]; listed as CA): able to bind to and activate the AHR at much lower concentrations than that observed for 3-HAA; also recorded: potent agonist of the AhR | CYP1A1 transcription [6]: upregulation of CYP1A1 transcription within lymphocytes | animals that get sick (EAE survival curve) ([7]; 10 animals, 1 dose of CA (1 mg/mouse) at day 0, 9/10 with vehicle (DMSO)): 1/10 | Foxp3+ Treg cells in the CNS [7, 8]: but not in the CNS | Foxp3+ Treg cells in the spleen [7, 8]: slight, but significant, increase in Foxp3+ Treg cells in the spleen | frequency and number of Th17 and Th22 cells in the spleen [7, 8]: increase in the frequency and number of Th17 and Th22 cells in the spleen | frequency of infiltrating Th17 and Th22 cells in the CNS [7, 8]: decrease in the frequency of infiltrating Th17 and Th22 cells | number of infiltrating T cells in the central nervous system (CNS) [7, 8]: greatly reduced number of infiltrating T cells in the central nervous system (CNS) | development / induction of EAE (disease occurrence and severity) [7]: inhibits the development of experimental allergic encephalomyelitis (EAE); also recorded: inhibits the induction of EAE | development / induction of EAE (disease occurrence and severity) ([7]; listed as CA): suppress autoimmunity in a mouse model of multiple sclerosis; also recorded: significant reduction of disease occurrence and severity; also recorded: almost completely block the development of EAE | development / induction of EAE (disease occurrence and severity) ([7]; listed as Cinnabaric Acid): inhibits the induction of EAE | proliferation of splenocytes on restimulation with MOG peptide ([7]; splenocytes from CA treated mice): significantly greater amount of proliferation
